This is an account of results in US5403934A, “Heterocyclic compounds” (Burroughs Wellcome Co., priority 1990, dated 1995).

pIC50: −log10 of the molar value.

Experiment [1] has as its system Plasmodium falciparum. In words: In vitro activity vs. Plasmodium falciparum (modified semi-automated microdilution technique of Desjardins et al, [3H]-hypoxanthine). The class given is cell-based. Conditions: Erythrocyte, human erythrocytes, RPMI 1640 + 10% human plasma, 37° C, number of tests in parentheses in own column. As for the experimental part: 1. In vitro Activity vs. Plasmodium falciparum The in vitro activity of the test compounds was determined using a modification of the semi-automated microdilution technique of Desjardins et al (1979). Initial dilutions were prepared from 1/100th molecular weight (in mg) of the compounds dissolved in dry ethanol, with the first 1:100 dilution being in ethanol and subsequent dilutions in RPMI 1640 medium supplemented with 10% v/v human plasma. Serial 1:2 drug dilutions were prepared in microtitration trays using microdiluters, each dilution being set up in triplicate. To this was added RPMI 1640 medium supplemented with 10% v/v human plasma, fresh and infected type A Rhesus positive human erythrocytes to yield a haematocrit of 3% and a parasitaemia of 0.25-0.5%. [^3 H]-hypoxanthine was added to give a final concentration of 12.5-16 μCi/ml of culture. The plates were sealed and incubated in a modular incubator in a gas mixture of 5% O2; 3% CO2 and 92% N2 by volume at 37° C. The test was completed as described by Desjardins et at (1979). Data were analysed to yield IC50 values by best fit to a sigmoidal dose-response curve.
(In general: Dilution methods test growth across graded concentrations, often in twofold steps.)

Experiment [2] concerns P. yoelii. In words: Mouse 4-day suppressive test vs P. yoelii. The class given is in vivo. Particulars: Plasmodium yoelii, P. yoelii YM strain, 7 oral doses in 4 days, CD1 mice, parasitaemia day 5. As for the experimental part:
2. In vivo Activity vs. P.yoelii in the Mouse
In vivo activity was determined using the modified 4-day suppressive test involving an infection of the YM strain of P.yoelii by 3×10^6 parasitized erythrocytes/ml and 7 oral doses given in 4 days in CD1 mice. Drugs were formulated by ball milling overnight in 0.25% celacol with stainless steel balls to form a fine particle suspension. The total requirement was formulated at the beginning of a test and thereafter stored at 4° C. On the morning of day 5 smears of tail blood were prepared from each mouse, the parasitaemias counted and the inhibition as compared to control animals calculated. Data were analysed to yield ED50 values by the best fit to a sigmoidal dose response curve, and the results are presented in Table 2 below.

For the compound `Cc1c(Br)c(=O)c(-c2ccc(Cl)cc2)c(C)n1C` [Example 12, 3-Bromo-5-(4-Chlorophenyl)-1,2,6-trimethylpyridin-4-one], in experiment [1], the negative-log IC50 (pIC50) was 4.63. The ED50 in experiment [2] amounted to 16.4 mg/kg. The like results for `Cc1cc(=O)c(-c2ccc(Oc3ccc(Cl)cc3)cc2)c(C)[nH]1` [Example 1, 3-(4-(4-Chlorophenoxy)phenyl)-2,6-dimethylpyridin-4(1H)-one] were, in that order, 5.60 and 2.5 mg/kg. For `Cc1[nH]c(C)c(-c2ccc(-c3ccc(Cl)cc3)cc2)c(=O)c1Br` [Example 7, 3-Bromo-5-(4'-chloro-4-biphenylyl)-2,6-dimethylpyridin-4(1H)-one], in that order: 5.70 and 1.4 mg/kg. For the compound `Cc1cc(=O)c(-c2ccc(Oc3ccc(C(F)(F)F)cc3)cc2)c(C)[nH]1` [Example 4, 3-(4-(4-Trifluoromethylphenoxy)phenyl)-2,6-dimethylpyridin-4(1H)-one], the negative-log IC50 (pIC50) in experiment [1] is 5.96. In experiment [2], this compound came in with an ED50 of 1.25 mg/kg.

On to `Cc1[nH]c(C)c(-c2ccc(Oc3ccc(C(F)(F)F)cc3)cc2)c(=O)c1Br` [Example 5, 3-Bromo-5-(4-(4-trifluoromethylphenoxy)phenyl)-2,6-dimethylpyridin-4(1H)-one], for which the pIC50 in experiment [1] is 6.66. In experiment [2], this compound yielded an ED50 of 0.26 mg/kg. For `CCCCCCCCc1c(C)[nH]c(C)c(C#N)c1=O` [Example 10, 5-Cyano-2,6-dimethyl-3-octylpyridin-4(1H)-one], in experiment [1], the pIC50 was 5.64.

Take `Cc1[nH]c(C)c(-c2ccc(Oc3ccc([S+](C)[O-])cc3)cc2)c(=O)c1Br` (stereo not drawn) [Example 16, 3-Bromo-2,6-dimethyl-5-(4-(4-methylsulphinylphenoxy)phenyl)pyridin-4(1H)-one]: the pIC50 in experiment [1] was 5.80. As to `Cc1[nH]c(C)c(-c2ccc(-c3ccc(Cl)cc3)cc2)c(=O)c1Cl` [Example 8, 3-Chloro-5-(4'-chloro-4-biphenylyl)-2,6-dimethylpyridin-4(1H)-one], the negative-log IC50 (pIC50) in experiment [1] was 6.30. The compound further gave an ED50 in experiment [2] of 0.6 mg/kg.

For `Cc1cc(=O)c(-c2ccc(-c3ccc(Cl)cc3)cc2)c(C)[nH]1` [Example 6, 3-(4'-Chloro-4-biphenylyl)-2,6-dimethylpyridin-4(1H)-one], in experiment [1], the pIC50 is 5.08. In experiment [2], this compound came in with a median effective dose (ED50) of 1.6 mg/kg.

In the case of `Cc1[nH]c(C)c(-c2ccc(Oc3ccc(OC(F)(F)F)cc3)cc2)c(=O)c1Cl` [Example 15, 3-Chloro-5-(4-(4-trifluoromethoxyphenoxy)phenyl)-2,6-dimethylpyridin-4(1H)-one], the negative logarithm of the IC50 (pIC50) in experiment [1] was 7.70. In experiment [2], the ED50 came to 0.19 mg/kg. The like results for `Cc1[nH]c(C)c(-c2ccc(Oc3ccc(Cl)cc3)cc2)c(=O)c1Cl` [Example 3, 3-Chloro-5-(4-(4-chlorophenoxy)phenyl)-2,6-dimethylpyridin-4(1H)-one] were, in that order, 5.85 and 1.6 mg/kg. The like results for `Cc1[nH]c(C)c(-c2ccc(Oc3ccc(Cl)cc3)cc2)c(=O)c1Br` [Example 2, 3-Bromo-5-[4-(4-chlorophenoxy)phenyl]-2,6-dimethylpyridin-4(1H)-one] were, in that order, 6.70 and 0.7 mg/kg.

With `Cc1[nH]c(C)c(-c2ccc(Oc3ccc(OC(F)(F)F)cc3)cc2)c(=O)c1Br` [Example 14, 3-Bromo-5-(4-(4-trifluoromethoxyphenoxy)phenyl)-2,6-dimethylpyridin-4(1H)-one], the pIC50 in experiment [1] is 7.64. The ED50 in experiment [2] worked out at 0.34 mg/kg.

A word on the pIC50: it is the IC50 on a negative log10 scale, so that one unit is a factor of ten. A word on the ED50: it is the dose that gives a 50% effect, or the effect in half of the subjects. High values mean a need for a large dose, low ones an effect at a small dose.
